System: Plasmodium berghei
Assay: Luciferase/luciferin-expressing antifolate-resistant parasites were used to infect a culture of HepG2 cells that were pre-incubated with compounds. Infected hepatocytes emit light due to the luciferase reaction. Assay results are presented as the percent inhibition of light emission compared to control. […]
Type: functional
Settings: sporozoite; for IC90: read-out: LUCIFERASE INFECTION ASSAY - IC90
[1] = read-out: LUCIFERASE INFECTION ASSAY - IC50

SMILES	IC90	IC50 [1]	other results
CC(OC(=O)c1ccccc1Nc1ccccc1)C(=O)NC1CC1 (stereo not given)	> 10 µM		IC50 (PBLUC_HILL_SLOPE 8.51, PBLUC_R_SQUARED 0.0555, read-out: LUCIFERASE INFECTION ASSAY - IC50): 8.65 µM
Cc1cccc(C=C(C(=O)NC(C)c2ccccc2)C(=O)NC(C)c2ccccc2)c1 (stereo not given)	8.3 µM		IC50 (HEPG2TOX_HILL_SLOPE 105, HEPG2TOX_R_SQUARED 0.565, PBLUC_HILL_SLOPE 4.68, PBLUC_R_SQUARED 0.0675, read-out: LUCIFERASE INFECTION ASSAY - IC50): 5.19 µM
Cc1cc(N2CCOCC2)ccc1NC(=O)CC1C=CCC1 (stereo not given)	> 10 µM	> 10 µM	
CCOC(=O)c1cnc(NNC(=O)c2ccc(Cl)cc2Cl)nc1C(F)(F)F	> 7.8 µM	> 7.8 µM	
O=C(Nc1nc2ccc(SC(F)F)cc2s1)c1ccc(Cl)nc1	> 10 µM		IC50 (HEPG2TOX_HILL_SLOPE 12.1, HEPG2TOX_R_SQUARED 0.0104, read-out: LUCIFERASE INFECTION ASSAY - IC50): > 10 µM
COc1cc(C2(O)CS/C(=C(/C#N)C(=O)Nc3ccc(Cl)cc3)N2c2ccccc2)cc(OC)c1OC (stereo not given)	> 10 µM		IC50 (HEPG2TOX_HILL_SLOPE 8.02, HEPG2TOX_R_SQUARED 0.929, PBLUC_HILL_SLOPE 8.63, PBLUC_R_SQUARED 0.488, read-out: LUCIFERASE INFECTION ASSAY - IC50): 8.71 µM
CCOc1cccc(-c2cn3c(-c4cccc(CO)c4)cnc3cn2)c1	> 9.55 µM		IC50 (PBLUC_HILL_SLOPE 11.7, PBLUC_R_SQUARED 0.129, read-out: LUCIFERASE INFECTION ASSAY - IC50): 8.63 µM
COc1ccc(-c2nc3c(c(=O)[nH]c(=O)n3Cc3ccccc3)n2Cc2ccccc2)cc1	> 10 µM		IC50 (HEPG2TOX_HILL_SLOPE 7.19, HEPG2TOX_R_SQUARED 0.823, PBLUC_HILL_SLOPE 10.3, PBLUC_R_SQUARED 0.181, read-out: LUCIFERASE INFECTION ASSAY - IC50): 8.99 µM
O=C(Cc1csc(-c2ccc(C(F)(F)F)cc2)n1)NCc1cnn(-c2ccccc2)c1	> 10 µM	> 10 µM	
CCCn1c(NC(=O)C2CCCN(S(=O)(=O)c3cccs3)C2)nc2ccccc21 (stereo not given)	> 10 µM		IC50 (FFLUC_HILL_SLOPE 15.6, FFLUC_R_SQUARED 0.229, read-out: LUCIFERASE INFECTION ASSAY - IC50): > 10 µM
Cc1[nH]c(=S)c(C#N)c2c1C1(C)CCC3C(CC=C4CC(O)CCC43C)C1C2 (stereo not given)	> 10 µM	> 10 µM	
Cc1cc([N+](=O)[O-])cc[n+]1[O-]	> 21.4 µM		IC50 (PBLUC_HILL_SLOPE 2.57, PBLUC_R_SQUARED 0.305, read-out: LUCIFERASE INFECTION ASSAY - IC50): 14.6 µM
CN(C)S(=O)(=O)c1ccc(N2CCCC2)c(C(=O)Nc2nc(-c3ccccn3)cs2)c1	9.7 µM		IC50 (HEPG2TOX_HILL_SLOPE 8.6, HEPG2TOX_R_SQUARED 0.463, PBLUC_HILL_SLOPE 5.89, PBLUC_R_SQUARED 0.378, read-out: LUCIFERASE INFECTION ASSAY - IC50): 6.68 µM
CC(C)(C)c1ccc(C(=O)NNC(=O)c2ccc(CSc3ccc(C(F)(F)F)cn3)o2)cc1	> 6.91 µM	> 6.91 µM	
COc1cc(C(=O)c2c(N)c(C#N)cn3c2nc2ccccc23)cc(OC)c1OC	1.04 µM		IC50 (HEPG2TOX_HILL_SLOPE 1.34, 0.970, HEPG2TOX_R_SQUARED 0.842, 0.883, PBLUC_HILL_SLOPE 1.49, PBLUC_R_SQUARED 0.764, read-out: LUCIFERASE INFECTION ASSAY - IC50): 0.237 µM
O=C(Nc1ccc(OC(F)(F)F)cc1)c1ccc(=O)n(Cc2ccc(Cl)cc2)c1	> 7.81 µM		IC50 (PBLUC_HILL_SLOPE 1.46, PBLUC_R_SQUARED 0.0131, read-out: LUCIFERASE INFECTION ASSAY - IC50): 7.46 µM
CC(Sc1nc(N)c2ccsc2n1)c1nc(-c2ccccc2)no1 (stereo not given)	> 10 µM		IC50 (PBLUC_HILL_SLOPE 3.96, PBLUC_R_SQUARED 0.141, read-out: LUCIFERASE INFECTION ASSAY - IC50): > 10 µM
Cc1ccc(CN(C)C(=O)CSc2nnc(-c3ccc(C(C)(C)C)cc3)o2)c(C)c1	> 10 µM	> 10 µM	
CCN(CC)S(=O)(=O)c1ccc(C(=O)c2c(C)c(C(=O)C(F)(F)F)c3ccccn23)cc1	> 10 µM	> 10 µM	
CC(C)Cn1c(SCC(=O)Nc2ccccc2C(=O)OC2CC(C)CCC2C(C)C)nnc1-c1cccc(S(=O)(=O)N2CCOCC2)c1 (stereo not given)	> 10 µM		IC50 (PBLUC_HILL_SLOPE 3.05, PBLUC_R_SQUARED 0.72, read-out: LUCIFERASE INFECTION ASSAY - IC50): 5.79 µM
CCCC(=O)Nc1ccc(-c2csc(NC(=O)c3cc(C)oc3C)n2)cc1	> 10 µM	> 10 µM	
Cc1cc(C)c(NC(=O)CNc2nn3cc(-c4ccccc4)nc3s2)c(C)c1	> 10 µM		IC50 (PBLUC_HILL_SLOPE 1.1, PBLUC_R_SQUARED 0.432, read-out: LUCIFERASE INFECTION ASSAY - IC50): 1.54 µM
CCCN1CCc2nc(Nc3ccc(Oc4ccccc4)cc3)ncc2C1	> 9.16 µM	> 9.16 µM	

SMILES	IC90	IC50 [1]	other results
O=C(Nc1cccc(-c2nc3ccccc3[nH]2)c1)c1cccc(S(=O)(=O)N2CCCC2)c1	> 10 µM	> 10 µM	
CCC(=O)c1ccc(OCC(=O)N(C)C2CCc3ccccc32)cc1 (stereo not given)	> 10 µM	> 10 µM	
Clc1ccc(-c2cnc3cnc(-c4ccco4)cn23)cc1	> 11.2 µM		IC50 (FFLUC_HILL_SLOPE 15, FFLUC_R_SQUARED 0.745, PBLUC_HILL_SLOPE 1.06, PBLUC_R_SQUARED 0.544, read-out: LUCIFERASE INFECTION ASSAY - IC50): 7.89 µM
CCOc1ccc(-c2nnc(SCc3csc(Nc4ccc(C)cc4)n3)n2-c2ccccc2F)cc1	> 10 µM		IC50 (HEPG2TOX_HILL_SLOPE 1.93, HEPG2TOX_R_SQUARED 0.706, PBLUC_HILL_SLOPE 2.19, PBLUC_R_SQUARED 0.586, read-out: LUCIFERASE INFECTION ASSAY - IC50): 5.29 µM
COc1ccc(C(=O)Nc2ccc(Oc3cc(C(F)(F)F)cc(C(F)(F)F)c3)cc2)cc1	2.35 µM	0.486 µM	
Cn1ccc2cc(-c3cnc4cnc(-c5ccccc5Cl)cn34)ccc21	0.043 µM		IC50 (HEPG2TOX_HILL_SLOPE 0.673, HEPG2TOX_R_SQUARED 0.619, PBLUC_HILL_SLOPE 2.33, PBLUC_R_SQUARED 0.732, read-out: LUCIFERASE INFECTION ASSAY - IC50): 0.0168 µM
COc1cccc(CN2CCN3C(C(=O)Nc4cccc(OC(F)(F)F)c4)=COC3=NC2=O)c1	> 10 µM		IC50 (HEPG2TOX_HILL_SLOPE 0.751, HEPG2TOX_R_SQUARED 0.867, PBLUC_HILL_SLOPE 2.96, PBLUC_R_SQUARED 0.388, read-out: LUCIFERASE INFECTION ASSAY - IC50): 6.84 µM
O=C(NC1CC1)c1ccc(CN(C2CC2)S(=O)(=O)c2ccccc2[N+](=O)[O-])cc1	3.74 µM	3.41 µM	
Cc1nn(Cc2ccc(C(=O)NC3CC3)cc2)c(C)c1[N+](=O)[O-]	> 10 µM		IC50 (PBLUC_HILL_SLOPE 1.06, PBLUC_R_SQUARED 0.0833, read-out: LUCIFERASE INFECTION ASSAY - IC50): > 10 µM
Cc1cc(C)cc(OCC(O)CNC(C)CCC(C)C)c1 (stereo not given)	> 10 µM	> 10 µM	
Cc1nc2cc(Nc3nc(CN4CCOCC4)nc4scc(-c5ccccc5)c34)ccc2n1-c1ccccc1	> 10 µM	> 10 µM	
O=C(Nc1nc(-c2ccccn2)cs1)c1ccc(-n2cncn2)cc1	1.2 µM		IC50 (HEPG2TOX_HILL_SLOPE 1.34, HEPG2TOX_R_SQUARED 0.829, PBLUC_HILL_SLOPE 31.3, PBLUC_R_SQUARED 0.545, read-out: LUCIFERASE INFECTION ASSAY - IC50): 1.12 µM
O=C(Nc1ccc(-n2cccn2)nc1)C1=NN(c2ccccc2)C(=O)CN1	> 10 µM		IC50 (PBLUC_HILL_SLOPE 2.66, PBLUC_R_SQUARED 0.194, read-out: LUCIFERASE INFECTION ASSAY - IC50): > 10 µM
COc1ccc(OC)c(S(=O)(=O)N2[C@@H]3CC[C@@H](C3)[C@H]2c2nc3cccc(OCc4ccccc4)c3[nH]2)c1	> 10 µM		IC50 (PBLUC_HILL_SLOPE 10.6, PBLUC_R_SQUARED 0.0638, read-out: LUCIFERASE INFECTION ASSAY - IC50): > 10 µM
c1ccc(CN2CCC(Nc3ncnc4sccc34)CC2)cc1	> 10 µM	8.87 µM	
CCOC(=O)c1sc(N(NC(=O)c2cc(C(F)(F)F)cc(C(F)(F)F)c2)C(=O)c2cc(C(F)(F)F)cc(C(F)(F)F)c2)c2c1CC(C)(C)CC2=O	> 4.33 µM	> 4.33 µM	
O=C(Nc1ccc(Oc2ccccc2)cc1)C1=CN2CCN(Cc3ccccc3)C(=O)N=C2O1	> 10 µM	> 10 µM	
COc1ccc(C(C)C)cc1-c1cc(N2CCCC2CO)n2nccc2n1 (stereo not given)	6.95 µM		IC50 (HEPG2TOX_HILL_SLOPE 1.35, HEPG2TOX_R_SQUARED 0.737, PBLUC_HILL_SLOPE 1.83, PBLUC_R_SQUARED 0.512, read-out: LUCIFERASE INFECTION ASSAY - IC50): 2.09 µM
COc1cccc(-c2cnn3ccc(Nc4cc(OC)c(OC)c(OC)c4)nc23)c1	3.34 µM		IC50 (HEPG2TOX_HILL_SLOPE 6.32, HEPG2TOX_R_SQUARED 0.972, PBLUC_HILL_SLOPE 10.3, PBLUC_R_SQUARED 0.636, read-out: LUCIFERASE INFECTION ASSAY - IC50): 2.7 µM
Cc1cc(N2CCN(C)CC2)ccc1NC(=O)c1cnc2c(c1)c(=O)n(C)c(=O)n2C	> 10 µM	> 10 µM	
CCc1[nH]c(=O)c(C#N)c(-c2ccccc2)c1C(=O)OC	> 11.7 µM	> 11.7 µM	
COc1cc(-c2nc3ccc(NC(=O)Nc4ccc(C)cc4)cn3n2)cc(OC)c1OC	2.87 µM		IC50 (HEPG2TOX_HILL_SLOPE 3.16, HEPG2TOX_R_SQUARED 0.688, PBLUC_HILL_SLOPE 3.03, PBLUC_R_SQUARED 0.446, read-out: LUCIFERASE INFECTION ASSAY - IC50): 1.39 µM

Reference: ChEMBL document CHEMBL4483862, “Open-source discovery of chemical leads for next-generation chemoprotective antimalarials” (2018)
